Experimental data published in ChEMBL document CHEMBL4715708, “Discovery of 8-Amino-imidazo[1,5-a]pyrazines as Reversible BTK Inhibitors for the Treatment of Rheumatoid Arthritis” (ACS Med Chem Lett, 2016).

What was measured:
[1] = Clearance in rat at 4 mg/kg, iv; format: ADME, organism-based; details: in vivo
[2] = Volume of distribution at steady state in rat at 4 mg/kg, iv; format: ADME, organism-based; details: in vivo, read-out: Vdss
[3] = Dose normalized AUC in rat at 4 mg/kg, iv; format: ADME, organism-based; details: in vivo
[4] = Half life in rat at 4 mg/kg, iv; format: ADME, organism-based; details: in vivo
[5] = Cmax in rat at 10 mg/kg, po; format: ADME, organism-based; parameters: route oral, dose 10 mg/kg; details: in vivo
[6] = Tmax in rat at 10 mg/kg, po; format: ADME, organism-based; details: in vivo
[7] = Oral bioavailability in rat at 10 mg/kg; format: ADME, organism-based; details: in vivo
[8] = biological target: Tyrosine-protein kinase Blk (Homo sapiens, UniProt P51451); assay: Inhibition of human BLK
[9] = biological target: T1, Cytoplasmic tyrosine-protein kinase BMX (Homo sapiens, UniProt P51813); assay: Inhibition of human BMX
T1 sequence (P51813 whole entry): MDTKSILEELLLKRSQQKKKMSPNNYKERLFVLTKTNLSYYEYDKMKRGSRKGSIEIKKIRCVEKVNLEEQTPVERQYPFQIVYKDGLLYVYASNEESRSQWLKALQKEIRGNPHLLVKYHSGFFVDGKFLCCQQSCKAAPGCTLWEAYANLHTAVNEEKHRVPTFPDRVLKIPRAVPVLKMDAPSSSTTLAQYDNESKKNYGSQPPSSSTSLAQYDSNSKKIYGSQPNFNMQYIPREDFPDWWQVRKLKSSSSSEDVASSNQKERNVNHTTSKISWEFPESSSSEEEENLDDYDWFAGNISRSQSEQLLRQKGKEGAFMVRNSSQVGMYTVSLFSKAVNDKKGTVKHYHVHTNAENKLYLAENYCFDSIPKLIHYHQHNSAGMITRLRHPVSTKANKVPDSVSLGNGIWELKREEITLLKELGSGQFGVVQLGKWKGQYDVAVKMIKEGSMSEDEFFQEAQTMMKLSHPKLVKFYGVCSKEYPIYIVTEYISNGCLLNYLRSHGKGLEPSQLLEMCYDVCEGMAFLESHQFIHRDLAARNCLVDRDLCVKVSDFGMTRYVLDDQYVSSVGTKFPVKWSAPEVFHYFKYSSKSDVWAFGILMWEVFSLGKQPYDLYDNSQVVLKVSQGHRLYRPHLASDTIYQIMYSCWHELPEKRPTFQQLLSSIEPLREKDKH

[10] = biological target: Tyrosine-protein kinase CSK (Homo sapiens, UniProt P41240); assay: Inhibition of human CSK
[11] = biological target: Receptor tyrosine-protein kinase erbB-4 (Homo sapiens, UniProt Q15303); assay: Inhibition of human ERBB4
Chain of Receptor tyrosine-protein kinase erbB-4 (Q15303 whole entry): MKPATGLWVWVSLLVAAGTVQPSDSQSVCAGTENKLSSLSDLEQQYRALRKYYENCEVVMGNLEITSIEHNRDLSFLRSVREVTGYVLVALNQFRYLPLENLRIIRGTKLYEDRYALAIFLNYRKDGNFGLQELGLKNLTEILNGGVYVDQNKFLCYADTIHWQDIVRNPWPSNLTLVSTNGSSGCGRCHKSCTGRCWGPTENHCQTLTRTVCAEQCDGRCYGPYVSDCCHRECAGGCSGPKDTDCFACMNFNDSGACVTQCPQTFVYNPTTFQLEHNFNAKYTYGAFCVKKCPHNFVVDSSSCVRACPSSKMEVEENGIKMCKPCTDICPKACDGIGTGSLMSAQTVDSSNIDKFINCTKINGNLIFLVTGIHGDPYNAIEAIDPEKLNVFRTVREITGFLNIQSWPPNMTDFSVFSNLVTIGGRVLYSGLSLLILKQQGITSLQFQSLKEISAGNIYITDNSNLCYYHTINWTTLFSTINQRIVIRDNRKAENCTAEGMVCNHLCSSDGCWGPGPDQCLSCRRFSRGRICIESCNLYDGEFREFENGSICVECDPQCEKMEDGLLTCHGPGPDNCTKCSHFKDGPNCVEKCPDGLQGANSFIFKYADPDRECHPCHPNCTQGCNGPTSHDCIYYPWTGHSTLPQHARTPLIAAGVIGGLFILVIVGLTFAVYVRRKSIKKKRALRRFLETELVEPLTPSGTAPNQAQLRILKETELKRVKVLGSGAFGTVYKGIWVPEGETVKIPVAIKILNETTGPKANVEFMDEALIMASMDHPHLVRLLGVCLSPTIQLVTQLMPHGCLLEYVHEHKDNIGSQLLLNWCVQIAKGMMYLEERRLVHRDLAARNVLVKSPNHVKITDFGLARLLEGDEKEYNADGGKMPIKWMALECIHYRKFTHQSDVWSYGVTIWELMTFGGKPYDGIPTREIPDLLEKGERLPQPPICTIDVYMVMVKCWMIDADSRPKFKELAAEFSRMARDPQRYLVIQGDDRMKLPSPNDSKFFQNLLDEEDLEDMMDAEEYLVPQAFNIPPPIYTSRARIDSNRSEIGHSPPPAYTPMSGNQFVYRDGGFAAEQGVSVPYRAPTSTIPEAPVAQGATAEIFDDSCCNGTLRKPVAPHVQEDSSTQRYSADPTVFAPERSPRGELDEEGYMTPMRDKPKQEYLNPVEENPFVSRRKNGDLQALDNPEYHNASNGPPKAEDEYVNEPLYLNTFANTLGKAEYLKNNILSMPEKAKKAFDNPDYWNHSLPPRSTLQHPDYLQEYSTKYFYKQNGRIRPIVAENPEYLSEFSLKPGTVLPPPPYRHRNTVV

[12] = biological target: Tyrosine-protein kinase Fgr (Homo sapiens, UniProt P09769); assay: Inhibition of human FGR
Chain of Tyrosine-protein kinase Fgr (P09769 whole entry): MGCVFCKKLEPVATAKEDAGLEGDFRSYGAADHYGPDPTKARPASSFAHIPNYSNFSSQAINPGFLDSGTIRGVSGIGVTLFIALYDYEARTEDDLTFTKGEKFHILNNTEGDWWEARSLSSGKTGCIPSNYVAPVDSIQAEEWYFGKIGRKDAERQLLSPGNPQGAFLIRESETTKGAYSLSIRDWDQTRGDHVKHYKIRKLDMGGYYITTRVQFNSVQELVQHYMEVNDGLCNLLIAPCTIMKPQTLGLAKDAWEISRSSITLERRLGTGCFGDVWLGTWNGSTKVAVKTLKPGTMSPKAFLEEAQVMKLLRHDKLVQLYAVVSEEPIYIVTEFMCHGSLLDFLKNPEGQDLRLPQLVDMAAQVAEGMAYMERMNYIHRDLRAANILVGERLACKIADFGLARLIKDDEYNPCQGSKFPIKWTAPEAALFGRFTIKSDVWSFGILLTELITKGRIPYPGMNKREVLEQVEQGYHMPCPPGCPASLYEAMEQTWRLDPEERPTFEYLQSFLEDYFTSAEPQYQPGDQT

[13] = biological target: Tyrosine-protein kinase FRK (Homo sapiens, UniProt P42685); assay: Inhibition of human FRK
[14] = biological target: Tyrosine-protein kinase Fyn (Homo sapiens, UniProt P06241); assay: Inhibition of human FYN
Chain of Tyrosine-protein kinase Fyn (P06241 whole entry): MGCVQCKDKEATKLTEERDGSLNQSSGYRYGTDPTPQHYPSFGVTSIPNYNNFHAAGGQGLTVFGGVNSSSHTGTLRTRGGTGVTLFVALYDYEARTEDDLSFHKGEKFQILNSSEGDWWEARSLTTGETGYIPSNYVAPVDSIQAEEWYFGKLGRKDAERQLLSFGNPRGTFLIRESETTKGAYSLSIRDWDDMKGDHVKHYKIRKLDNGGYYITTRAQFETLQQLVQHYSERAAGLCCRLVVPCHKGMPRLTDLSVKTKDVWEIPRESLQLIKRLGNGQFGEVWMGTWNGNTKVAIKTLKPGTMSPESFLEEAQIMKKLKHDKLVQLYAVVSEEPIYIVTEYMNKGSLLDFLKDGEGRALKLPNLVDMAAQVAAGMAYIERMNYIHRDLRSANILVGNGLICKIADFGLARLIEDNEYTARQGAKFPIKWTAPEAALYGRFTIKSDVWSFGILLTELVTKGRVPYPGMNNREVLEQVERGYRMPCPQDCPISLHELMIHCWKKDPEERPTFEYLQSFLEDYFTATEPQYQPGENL

[15] = biological target: T2, Tyrosine-protein kinase ITK/TSK (Homo sapiens, UniProt Q08881); assay: Inhibition of human ITK
T2 sequence (Q08881 whole entry): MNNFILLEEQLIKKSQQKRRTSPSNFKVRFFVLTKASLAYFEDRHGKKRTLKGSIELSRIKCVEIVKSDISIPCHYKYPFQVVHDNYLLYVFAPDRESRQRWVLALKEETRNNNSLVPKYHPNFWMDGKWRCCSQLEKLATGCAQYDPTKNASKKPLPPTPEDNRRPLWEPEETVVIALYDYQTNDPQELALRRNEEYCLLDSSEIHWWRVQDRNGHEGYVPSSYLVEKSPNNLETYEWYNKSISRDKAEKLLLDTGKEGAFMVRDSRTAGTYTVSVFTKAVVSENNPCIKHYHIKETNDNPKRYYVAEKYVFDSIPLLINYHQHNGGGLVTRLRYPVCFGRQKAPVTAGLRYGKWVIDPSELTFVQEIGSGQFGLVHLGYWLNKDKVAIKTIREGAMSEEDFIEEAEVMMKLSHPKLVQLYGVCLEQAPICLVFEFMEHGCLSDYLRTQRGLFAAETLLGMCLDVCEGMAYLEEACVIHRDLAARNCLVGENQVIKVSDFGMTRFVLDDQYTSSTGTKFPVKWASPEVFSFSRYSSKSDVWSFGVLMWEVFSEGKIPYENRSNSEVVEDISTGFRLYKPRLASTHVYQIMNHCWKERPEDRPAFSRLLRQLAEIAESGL

[16] = biological target: Tyrosine-protein kinase Lck (Homo sapiens, UniProt P06239); assay: Inhibition of human LCK
Chain of Tyrosine-protein kinase Lck (P06239 whole entry): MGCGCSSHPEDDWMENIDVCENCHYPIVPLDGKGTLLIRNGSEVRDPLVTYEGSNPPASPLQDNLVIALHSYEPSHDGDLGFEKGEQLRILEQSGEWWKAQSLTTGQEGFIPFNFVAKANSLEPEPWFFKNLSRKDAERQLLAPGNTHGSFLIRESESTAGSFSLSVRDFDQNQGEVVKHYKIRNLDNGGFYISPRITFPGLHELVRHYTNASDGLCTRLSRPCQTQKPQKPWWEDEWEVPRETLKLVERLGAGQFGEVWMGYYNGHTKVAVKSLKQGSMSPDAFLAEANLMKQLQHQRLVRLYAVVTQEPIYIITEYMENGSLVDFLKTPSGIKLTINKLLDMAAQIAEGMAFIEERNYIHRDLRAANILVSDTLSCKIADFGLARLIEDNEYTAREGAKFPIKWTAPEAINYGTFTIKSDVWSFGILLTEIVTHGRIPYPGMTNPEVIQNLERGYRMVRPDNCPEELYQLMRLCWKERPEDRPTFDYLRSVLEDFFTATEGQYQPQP

[17] = biological target: Tyrosine-protein kinase Lyn (Homo sapiens, UniProt P07948); assay: Inhibition of human LYNB
Chain of Tyrosine-protein kinase Lyn (P07948 whole entry): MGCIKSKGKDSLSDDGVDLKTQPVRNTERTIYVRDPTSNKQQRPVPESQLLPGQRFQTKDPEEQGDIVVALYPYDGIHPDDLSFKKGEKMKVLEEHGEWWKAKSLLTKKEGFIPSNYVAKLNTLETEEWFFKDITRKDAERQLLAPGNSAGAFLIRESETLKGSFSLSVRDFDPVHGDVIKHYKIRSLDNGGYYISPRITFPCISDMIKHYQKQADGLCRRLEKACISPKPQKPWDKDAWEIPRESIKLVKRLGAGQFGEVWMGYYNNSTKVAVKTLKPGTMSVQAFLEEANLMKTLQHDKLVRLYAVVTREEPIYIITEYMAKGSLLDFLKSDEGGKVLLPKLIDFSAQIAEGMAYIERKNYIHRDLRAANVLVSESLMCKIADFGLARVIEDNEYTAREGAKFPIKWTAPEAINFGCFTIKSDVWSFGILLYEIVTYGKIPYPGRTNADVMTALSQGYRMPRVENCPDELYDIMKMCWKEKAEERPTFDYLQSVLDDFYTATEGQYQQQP

[18] = biological target: Protein-tyrosine kinase 6 (Homo sapiens, UniProt Q13882); assay: Inhibition of human PTK6
Chain of Protein-tyrosine kinase 6 (Q13882 whole entry): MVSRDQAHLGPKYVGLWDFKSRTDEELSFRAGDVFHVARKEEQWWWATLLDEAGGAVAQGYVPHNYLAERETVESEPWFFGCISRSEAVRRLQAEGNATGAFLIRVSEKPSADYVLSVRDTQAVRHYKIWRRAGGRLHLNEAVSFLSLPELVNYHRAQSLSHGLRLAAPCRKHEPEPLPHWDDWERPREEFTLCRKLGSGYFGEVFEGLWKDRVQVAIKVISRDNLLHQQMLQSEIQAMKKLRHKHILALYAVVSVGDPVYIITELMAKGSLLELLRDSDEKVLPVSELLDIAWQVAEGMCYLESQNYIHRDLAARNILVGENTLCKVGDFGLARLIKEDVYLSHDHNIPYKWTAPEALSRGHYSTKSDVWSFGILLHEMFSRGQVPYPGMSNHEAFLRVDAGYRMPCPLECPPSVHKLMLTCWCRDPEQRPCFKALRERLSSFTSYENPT

[19] = biological target: Proto-oncogene tyrosine-protein kinase Src (Homo sapiens, UniProt P12931); assay: Inhibition of human SRC
Chain of Proto-oncogene tyrosine-protein kinase Src (P12931 2-536 limits assumed): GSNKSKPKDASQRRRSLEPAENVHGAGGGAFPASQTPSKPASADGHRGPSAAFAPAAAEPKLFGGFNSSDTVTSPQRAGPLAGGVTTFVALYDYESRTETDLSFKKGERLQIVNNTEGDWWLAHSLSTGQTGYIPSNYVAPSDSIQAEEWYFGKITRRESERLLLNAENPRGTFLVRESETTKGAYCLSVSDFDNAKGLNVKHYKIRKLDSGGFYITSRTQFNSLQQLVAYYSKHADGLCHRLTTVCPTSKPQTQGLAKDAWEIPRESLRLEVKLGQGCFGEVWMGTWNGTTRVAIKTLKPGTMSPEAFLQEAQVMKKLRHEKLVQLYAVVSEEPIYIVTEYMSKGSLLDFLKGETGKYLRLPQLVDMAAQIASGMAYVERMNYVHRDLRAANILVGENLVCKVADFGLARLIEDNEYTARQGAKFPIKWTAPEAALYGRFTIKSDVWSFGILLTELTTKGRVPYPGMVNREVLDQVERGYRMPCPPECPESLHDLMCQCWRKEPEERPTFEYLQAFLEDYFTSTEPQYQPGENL

[20] = biological target: Tyrosine-protein kinase Srms (Homo sapiens, UniProt Q9H3Y6); assay: Inhibition of human SRMS
[21] = biological target: T3, Tyrosine-protein kinase Tec (Homo sapiens, UniProt P42680); assay: Inhibition of human TEC
T3 sequence (P42680 whole entry): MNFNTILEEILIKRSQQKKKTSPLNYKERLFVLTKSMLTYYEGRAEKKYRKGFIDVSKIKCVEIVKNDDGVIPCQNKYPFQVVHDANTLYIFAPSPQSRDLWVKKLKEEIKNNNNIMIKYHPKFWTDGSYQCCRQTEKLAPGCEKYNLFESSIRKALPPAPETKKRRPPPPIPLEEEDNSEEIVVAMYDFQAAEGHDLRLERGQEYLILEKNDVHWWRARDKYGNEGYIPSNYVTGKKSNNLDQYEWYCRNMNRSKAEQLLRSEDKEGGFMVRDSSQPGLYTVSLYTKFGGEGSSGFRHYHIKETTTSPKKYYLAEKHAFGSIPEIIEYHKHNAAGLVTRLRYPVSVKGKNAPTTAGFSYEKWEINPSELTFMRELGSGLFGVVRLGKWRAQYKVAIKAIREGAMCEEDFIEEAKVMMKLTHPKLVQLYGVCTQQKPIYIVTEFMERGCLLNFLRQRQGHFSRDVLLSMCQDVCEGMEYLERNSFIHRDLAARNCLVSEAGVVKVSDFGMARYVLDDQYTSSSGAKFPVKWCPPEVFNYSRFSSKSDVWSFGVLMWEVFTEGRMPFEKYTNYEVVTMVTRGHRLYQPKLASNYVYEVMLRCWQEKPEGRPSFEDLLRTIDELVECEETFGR

[22] = biological target: T4, Tyrosine-protein kinase TXK (Homo sapiens, UniProt P42681); assay: Inhibition of human TXK
T4 sequence (P42681 whole entry): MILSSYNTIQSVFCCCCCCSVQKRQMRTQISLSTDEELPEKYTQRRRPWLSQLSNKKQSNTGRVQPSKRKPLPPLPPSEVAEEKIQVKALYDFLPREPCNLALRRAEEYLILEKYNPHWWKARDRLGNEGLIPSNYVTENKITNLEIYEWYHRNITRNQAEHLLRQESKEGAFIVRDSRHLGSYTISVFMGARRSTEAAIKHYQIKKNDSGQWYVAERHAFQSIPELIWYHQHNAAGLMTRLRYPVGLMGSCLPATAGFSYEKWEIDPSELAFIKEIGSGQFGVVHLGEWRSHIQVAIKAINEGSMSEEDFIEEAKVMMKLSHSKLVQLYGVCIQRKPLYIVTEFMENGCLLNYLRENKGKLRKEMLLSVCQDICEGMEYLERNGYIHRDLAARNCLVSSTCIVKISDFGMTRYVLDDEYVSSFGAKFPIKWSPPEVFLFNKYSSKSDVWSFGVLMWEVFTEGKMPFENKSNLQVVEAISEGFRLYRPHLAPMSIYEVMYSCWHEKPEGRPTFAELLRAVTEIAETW

[23] = biological target: Tyrosine-protein kinase Yes (Homo sapiens, UniProt P07947); assay: Inhibition of human YES1
Chain of Tyrosine-protein kinase Yes (P07947 whole entry): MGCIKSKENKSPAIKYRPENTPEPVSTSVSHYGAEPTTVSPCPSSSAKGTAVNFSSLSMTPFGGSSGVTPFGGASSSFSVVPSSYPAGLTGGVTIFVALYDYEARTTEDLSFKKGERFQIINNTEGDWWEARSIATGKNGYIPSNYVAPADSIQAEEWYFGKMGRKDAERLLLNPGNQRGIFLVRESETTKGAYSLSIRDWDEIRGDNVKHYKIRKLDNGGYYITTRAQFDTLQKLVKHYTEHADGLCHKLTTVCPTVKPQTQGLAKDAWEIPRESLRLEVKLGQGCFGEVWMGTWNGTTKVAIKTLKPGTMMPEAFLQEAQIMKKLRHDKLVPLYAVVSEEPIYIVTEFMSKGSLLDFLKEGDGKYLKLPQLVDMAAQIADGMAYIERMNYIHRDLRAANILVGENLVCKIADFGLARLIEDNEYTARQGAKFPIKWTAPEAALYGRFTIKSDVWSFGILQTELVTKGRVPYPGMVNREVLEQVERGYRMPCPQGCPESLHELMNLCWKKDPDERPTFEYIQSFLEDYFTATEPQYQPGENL

[24] = Clearance in rat at 2 mg/kg, iv; format: ADME, organism-based; details: in vivo
[25] = Volume of distribution at steady state in rat at 2 mg/kg, iv; format: ADME, organism-based; details: in vivo, read-out: Vdss
[26] = Dose normalized AUC in rat at 2 mg/kg, iv; format: ADME, organism-based; details: in vivo
[27] = Half life in rat at 2 mg/kg, iv; format: ADME, organism-based; details: in vivo
[28] = Cmax in rat at 5 mg/kg, po; format: ADME, organism-based; parameters: route oral, dose 5 mg/kg; details: in vivo
[29] = Tmax in rat at 5 mg/kg, po; format: ADME, organism-based; details: in vivo
[30] = Oral bioavailability in rat at 5 mg/kg; format: ADME, organism-based; details: in vivo
[31] = Clearance in dog at 1 mg/kg, iv; format: ADME, organism-based, Canis lupus familiaris; details: in vivo
[32] = Volume of distribution at steady state in dog at 1 mg/kg, iv; format: ADME, organism-based, Canis lupus familiaris; details: in vivo, read-out: Vdss
[33] = Dose normalized AUC in dog at 1 mg/kg, iv; format: ADME, organism-based, Canis lupus familiaris; details: in vivo
[34] = Half life in dog at 1 mg/kg, iv; format: ADME, organism-based, Canis lupus familiaris; details: in vivo
[35] = Cmax in dog at 2 mg/kg, po; format: ADME, organism-based, Canis lupus familiaris; parameters: route oral, dose 2 mg/kg; details: in vivo
[36] = Tmax in dog at 2 mg/kg, po; format: ADME, organism-based, Canis lupus familiaris; details: in vivo
[37] = Oral bioavailability in dog at 2 mg/kg; format: ADME, organism-based, Canis lupus familiaris; details: in vivo

## CC1(C(=O)N2CCC[C@@H](c3nc(-c4ccc(C(=O)Nc5cc(C(F)(F)F)ccn5)cc4)c4c(N)nccn34)C2)COC1
[1]
  clearance: 6.3 mL/min/kg
[2]
  Vd: 0.59 L/kg
[3]
  AUC/dose: 5.1 µM·h
[4]
  half-life: 1.2 h
[5]
  Cmax: 4800 nM
[6]
  Tmax: 2.2 h
[7]
  bioavailability: 84%

## CC1(C(=O)N2CCC[C@@H](c3nc(-c4ccc(C(=O)Nc5cc(C(F)(F)F)ccn5)cc4F)c4c(N)nccn34)C2)COC1
[8]
  IC50: 42 nM
[9]
  IC50: 20 nM
[10]
  IC50: 253 nM
[11]
  IC50: 81 nM
[12]
  IC50: 55 nM
[13]
  IC50: 187 nM
[14]
  IC50: 322 nM
[15]
  IC50: 921 nM
[16]
  IC50: 22 nM
[17]
  IC50: 184 nM
[18]
  IC50: 63 nM
[19]
  IC50: 116 nM
[20]
  IC50: 24 nM
[21]
  IC50: 69 nM
[22]
  IC50: 32 nM
[23]
  IC50: 43 nM
[24]
  clearance: 24 mL/min/kg
[25]
  Vd: 1.7 L/kg
[26]
  AUC/dose: 1.1 µM·h
[27]
  half-life: 1.4 h
[28]
  Cmax: 1000 nM
[29]
  Tmax: 0.5 h
[30]
  bioavailability: 77%
[31]
  clearance: 11 mL/min/kg
[32]
  Vd: 2 L/kg
[33]
  AUC/dose: 3 µM·h
[34]
  half-life: 4.1 h
[35]
  Cmax: 780 nM
[36]
  Tmax: 1 h
[37]
  bioavailability: 60%

## C[C@H]1CC[C@@H](c2nc(-c3ccc(C(=O)Nc4cc(C(F)(F)F)ccn4)cc3F)c3c(N)nccn23)CN1C(=O)C1CC1
[24]
  clearance: 18 mL/min/kg
[25]
  Vd: 2.6 L/kg
[26]
  AUC/dose: 1.6 µM·h
[27]
  half-life: 1.8 h
[28]
  Cmax: 400 nM
[29]
  Tmax: 1 h
[30]
  bioavailability: 22%
[31]
  clearance: 1.5 mL/min/kg
[32]
  Vd: 0.65 L/kg
[33]
  AUC/dose: 20 µM·h
[34]
  half-life: 6.5 h
[35]
  Cmax: 3900 nM
[36]
  Tmax: 2 h
[37]
  bioavailability: 82%
